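Exposure lasted 48 hours, with cells grown in 96-well plates and compounds tested at five concentrations. GI50 marks 50% less growth.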 Calls of active or inactive are those of the source. No stated cut-off is given here; in the data, active = GI50 up to about 1.1 µM and inactive = higher.
Key:
Test in all cases: growth of human tumour cells (NCI), 48 h
SK-MEL-28 = system: SK-MEL-28
LOX IMVI = system: LOX IMVI
NCI-H23 = system: NCI-H23
OVCAR-8 = system: OVCAR-8
COLO 205 = system: COLO 205
PC-3 = system: PC-3
T47D = system: T47D
HCT-116 = system: HCT-116
IGROV-1 = system: IGROV-1
MDA-MB-231 = system: MDA-MB-231
A549 = system: A549
TK-10 = system: TK-10
786-0 = system: 786-0
SW-620 = system: SW-620
SK-MEL-2 = system: SK-MEL-2
HL-60 = system: HL-60
SK-MEL-5 = system: SK-MEL-5
MDA-N = system: MDA-N
SF-295 = system: SF-295
NCI-H522 = system: NCI-H522

SMILES	GI50 (SK-MEL-28)	GI50 (LOX IMVI)	GI50 (NCI-H23)	GI50 (OVCAR-8)	GI50 (COLO 205)	GI50 (PC-3)	GI50 (T47D)	GI50 (HCT-116)	GI50 (IGROV-1)	GI50 (MDA-MB-231)	GI50 (A549)	GI50 (TK-10)	GI50 (786-0)	GI50 (SW-620)	GI50 (SK-MEL-2)	GI50 (HL-60)	GI50 (SK-MEL-5)	GI50 (MDA-N)	GI50 (SF-295)	GI50 (NCI-H522)
COc1ccc(CCCNC(=O)Cc2ccccc2CO)cc1OC	> 100 µM (inactive)	> 100 µM (inactive)	> 100 µM (inactive)	> 100 µM (inactive)	> 100 µM (inactive)	> 100 µM (inactive)	> 100 µM (inactive)	> 100 µM (inactive)	> 100 µM (inactive)	> 100 µM (inactive)	> 100 µM (inactive)	> 100 µM (inactive)	> 100 µM (inactive)	> 100 µM (inactive)	> 100 µM (inactive)	> 100 µM (inactive)	> 100 µM (inactive)	> 100 µM (inactive)	–	–
CC(C)(C)c1cc(S(=O)(=O)O)c2oc(-c3ccccc3)cc(=O)c2c1	> 100 µM (inactive)	> 100 µM (inactive)	> 100 µM (inactive)	> 100 µM (inactive)	> 100 µM (inactive)	> 100 µM (inactive)	84.9 µM (inactive)	> 100 µM (inactive)	> 100 µM (inactive)	> 100 µM (inactive)	> 100 µM (inactive)	> 100 µM (inactive)	> 100 µM (inactive)	> 100 µM (inactive)	–	> 100 µM (inactive)	> 100 µM (inactive)	> 100 µM (inactive)	> 100 µM (inactive)	> 100 µM (inactive)
Cc1cn(C2CC(O)C(COC(=O)NCCC(F)(F)C(F)(F)C(F)(F)C(F)(F)F)O2)c(=O)[nH]c1=O (stereo unspecified)	> 100 µM (inactive)	–	> 100 µM (inactive)	> 100 µM (inactive)	> 100 µM (inactive)	> 100 µM (inactive)	> 100 µM (inactive)	88.5 µM (inactive)	> 100 µM (inactive)	> 100 µM (inactive)	> 100 µM (inactive)	> 100 µM (inactive)	> 100 µM (inactive)	> 100 µM (inactive)	–	> 100 µM (inactive)	> 100 µM (inactive)	86.3 µM (inactive)	> 100 µM (inactive)	> 100 µM (inactive)
O=C1CCCN1C(=O)CS(=O)(=O)c1ccccc1	> 100 µM (inactive)	> 100 µM (inactive)	> 100 µM (inactive)	> 100 µM (inactive)	> 100 µM (inactive)	> 100 µM (inactive)	> 100 µM (inactive)	> 100 µM (inactive)	> 100 µM (inactive)	> 100 µM (inactive)	> 100 µM (inactive)	> 100 µM (inactive)	> 100 µM (inactive)	> 100 µM (inactive)	> 100 µM (inactive)	–	> 100 µM (inactive)	> 100 µM (inactive)	> 100 µM (inactive)	> 100 µM (inactive)
CC(=O)OCC1OC(O[C@@H]2C[C@H]3C(C)(C)[C@@H](OC(C)=O)CC[C@]3(C)[C@H]3CC[C@]45C[C@]4(CC[C@H]5[C@@H](C)C[C@@H](O)[C@H](O)C(C)(C)F)[C@@]32C)C(O)C(O)C1O (stereo partly specified)	1.63 µM (inactive)	1.77 µM (inactive)	2.22 µM (inactive)	2.34 µM (inactive)	1.78 µM (inactive)	10.6 µM (inactive)	> 100 µM (inactive)	1.56 µM (inactive)	2.06 µM (inactive)	25.8 µM (inactive)	1.62 µM (inactive)	57.9 µM (inactive)	1.69 µM (inactive)	1.85 µM (inactive)	–	1.09 µM (active)	1.72 µM (inactive)	1.63 µM (inactive)	24.7 µM (inactive)	1.68 µM (inactive)
Nc1ncnc2c1nnn2C1C=CC(CP(=O)(O)O)C1 (stereo unspecified)	> 100 µM (inactive)	> 100 µM (inactive)	> 100 µM (inactive)	> 100 µM (inactive)	> 100 µM (inactive)	> 100 µM (inactive)	> 100 µM (inactive)	> 100 µM (inactive)	> 100 µM (inactive)	> 100 µM (inactive)	> 100 µM (inactive)	> 100 µM (inactive)	> 100 µM (inactive)	> 100 µM (inactive)	> 100 µM (inactive)	> 100 µM (inactive)	> 100 µM (inactive)	> 100 µM (inactive)	> 100 µM (inactive)	–
Nc1ccc(S(=O)(=O)c2ccc(NC(=O)c3cccnc3)cc2)cc1	> 100 µM (inactive)	> 100 µM (inactive)	> 100 µM (inactive)	> 100 µM (inactive)	> 100 µM (inactive)	75 µM (inactive)	36.8 µM (inactive)	> 100 µM (inactive)	> 100 µM (inactive)	> 100 µM (inactive)	> 100 µM (inactive)	> 100 µM (inactive)	> 100 µM (inactive)	> 100 µM (inactive)	–	45.1 µM (inactive)	42.4 µM (inactive)	> 100 µM (inactive)	> 100 µM (inactive)	53.2 µM (inactive)

Reference: ChEMBL document CHEMBL1201862, “PubChem BioAssay data set” (2004)
